Assay results from paper PMC7588185 (2020).

Test system: aad-4 riboswitch RNA (aad-4 leader RNA) (RNA, riboswitch) GGAGCAGCAACGAUGUUACGCAGCAGGGCAGUCGCCCUAAACAAAGUUAGGCCGCAUGGACACAACGCAGGUCACAUUGAUACACCAAAUUCUAGCUGCGGCAGAUGAGCGAAAU
Experiment: MicroScale Thermophoresis
Conditions: 100 mM KCl, 0.1 mM MgCl2; 10 mM HEPES pH 7.5; FTSC-labelled RNA

With `NC[C@@H]1O[C@H](O[C@H]2[C@@H](O)[C@H](O[C@@H]3[C@@H](O)[C@H](N)C[C@H](N)[C@H]3O[C@H]3O[C@H](CO)[C@@H](O)[C@H](O)[C@H]3N)O[C@@H]2CO)[C@H](N)[C@@H](O)[C@@H]1O` as the molecule, how does the Kd read?
The Kd was 10 µM.

How did the Kd turn out when `NC[C@H]1O[C@H](O[C@H]2[C@H](O)[C@@H](O)[C@H](N)C[C@@H]2N)[C@H](N)[C@@H](O)[C@@H]1O` was run?
The Kd was 12 µM.

How did the Kd turn out when `NC[C@H]1O[C@H](O[C@H]2[C@H](O[C@@H]3O[C@H](CO)[C@@H](O)[C@H]3O)[C@@H](O)[C@H](N)C[C@@H]2N)[C@H](N)[C@@H](O)[C@@H]1O` was run?
The Kd was 40 µM.

Same assay, conditions: 100 mM KCl, 0.1 mM MgCl2; 10 mM HEPES pH 7.5; FTSC-labelled RNA; only group range 1.2–3.9 µM given

For `NC[C@H]1O[C@H](O[C@H]2[C@H](O)[C@@H](O[C@H]3O[C@H](CO)[C@@H](O)[C@H](N)[C@H]3O)[C@H](N)C[C@@H]2N)[C@H](N)C[C@@H]1O`, which Kd is on record?
The Kd was 1.58 ± 0.28 µM.

`CN[C@@H]1[C@@H](O)[C@@H](O[C@@H]2[C@@H](O)[C@H](O[C@H]3OC(CN)=CC[C@H]3N)[C@@H](N)C[C@H]2N)OC[C@]1(C)O` was tested. Which Kd did it give?
Its Kd is 2.16 ± 0.25 µM.

`NC[C@H]1O[C@H](O[C@H]2[C@H](O)[C@@H](O[C@H]3O[C@H](CO)[C@@H](O)[C@H](N)[C@H]3O)[C@H](N)C[C@@H]2N)[C@H](N)[C@@H](O)[C@@H]1O` was tested. Which Kd did it give?
The Kd was 2.55 ± 0.24 µM.
